Patent US20230057602A1, “METHODS OF TREATMENT WITH ANTIBODIES AGAINST BCMA AND CD3” (BRISTOL-MYERS SQUIBB COMPANY, priority 2019, published 2023)

What was measured:
[1] = test system: H929 BCMA-expressing myeloma cell line; experiment: CC-93269-induced redirected lysis of H929; format: cell-based, human; details: E:T 1:1, 72 hours, 3 donors
Description: (§1) Four BCMA-expressing tumour cell lines purchased from ATCC (Manassa, Va.) (Multiple Myeloma cell lines: BCMA high-H-929 (catalog number CRL-9068), BCMA mid-SKMM2 and -MM.1S (catalog number ACC-430) and BCMA low-KMS12-PE (catalog number ACC-606)) were co-cultured with T-cells from 3 independent healthy donors (Bloodworks Northwest, Seattle, Wash.), at a E:T ratio of 1:1, i.e. 1 T cell: 1 myeloma cell. […]; 0.033-2.6 nM) for 72 hours.
(§2) FIG. 7 illustrates CC-93269-induced redirected lysis of BCMA+ tumour cell lines following co-culture with donor T cells from one healthy donor; results from all 3 independent healthy donors are summarised in Table 19. In 96-well round bottom plates and a final volume of 100 μL, 1×10^4 CellTrace Violet-labeled T-cells were plated with 1×10^4 CellTrace CFSE-labeled target cells, in the presence of varying concentrations of CC-93269 in combination with varying concentrations of dexamethasone (7-point dose response). The cocultures were incubated at 37° C. with 5% CO2. […] One-hundred percent viability was determined by the absolute cell count of live tumour cells at no addition of CC-93269 or dexamethasone; an absolute cell count of 0 live cells was used to define 100% killing of tumour cells. […] The IC50 values were calculated using non-linear regression analysis, sigmoidal dose-response using GraphPad Prism (version 5.0) software.

[2] = Subcutaneous versus intravenous bioavailability (data not shown); format: in vivo
Description: In some embodiments of any aspect of the invention, the multispecific (e.g. bispecific) antibody is administered intravenously or subcutaneously.

[3] = test system: MM1S BCMA-expressing myeloma cell line; experiment: CC-93269-induced redirected lysis of MM1S; format: cell-based, human; details: E:T 1:1, 72 hours, 3 donors
Description: as §1, §2

[4] = Clinical study of CC-93269 in RRMM: pharmacokinetics (exposure); format: in vivo, human
Description: (§3) CC-93269 (42-TCBcv), a bispecific antibody that specifically binds to BCMA bivalently and CD3 monovalently, was administered intravenously over 2 hours on Days 1, 8, 15, and 22 for Cycles 1-3; Days 1 and 15 for Cycles 4-6; and on Day 1 for Cycle 7 and beyond, all in 28-day cycles. 14 patients received a fixed dose of CC-93269 at each of the intervals: 0.15 mg (Cohort 1, n=1), 0.5 mg (Cohort 2, n=1), 1.5 mg (Cohort 3, n=1), 3 mg (Cohort 4, n=4), 6 mg (Cohort 5, n=3) or 10 mg (Cohort 6, n=4). 5 patients received a starting dose of 6 mg on Cycle 1 Day 1, followed by a dose of 10 mg on Cycle 1 Day 8 and thereafter (Cohort 7, n=5).
This phenomenon was not observed at 3 mg doses.

[5] = test system: Relapsed/Refractory Multiple Myeloma (RRMM) patients; experiment: Clinical study of CC-93269 in RRMM: efficacy (IMWG response, MRD); format: in vivo, human
Description: This study involved 19 RRMM patients who had received ≥3 prior regimens without prior BCMA-directed therapy. Prior treatments included autologous stem cell transplantation, allogenic stem cell transplantation, lenalidomide, pomalidomide, bortezomib, carfilzomib, and daratumumab (DARA). All patients had MM refractory to their last line of therapy.
as §3
Response was assessed using the International Myeloma Working Group (IMWG) Uniform Response Criteria (Rajkumar, 2011a; Kumar, 2016) at every cycle starting on Cycle 2 Day 1 and at the end of treatment. Minimal residual disease (MRD) was assessed by EuroFlow evaluation and NGS (next-generation sequencing) if evaluable. MRD negativity was reported only if a minimum sensitivity of <1 tumour cell in 10^5 nucleated cells was achieved. […]

[6] = test system: KMS12-PE BCMA-expressing myeloma cell line; experiment: CC-93269-induced redirected lysis of KMS12-PE; format: cell-based, human; details: E:T 1:1, 72 hours, 3 donors
Description: as §1, §2

[7] = 12 patients treated with ≥6 mg (Cohort 5 to 7)
[8] = Patients Treated with <6 mg (n = 7)
[9] = Patients Treated with up to 10 mg (n = 9)
[10] = Patients Treated with ≥6 mg (n = 12)
[11] = Patients treated with up to 3 mg (n = 7)
[12] = Patients treated with up to 6 mg (n = 14)
[13] = patients treated with ≥6 mg (Cohort 5 to 7)

## CC-93269: bispecific antibody that specifically binds to BCMA bivalently and CD3 monovalently; SEQ ID NO:48, 55, 56, 57 (2×)
[1]; 1 μM Dex co-treatment
  % live tumour cells, Mean: 2.11%
[1]; DMSO
  % live tumour cells, Mean: 1.61%
[2]
  bioavailability of subcutaneous administration: comparable bioavailability to intravenous administration
[3]; 1 μM Dex co-treatment
  % live tumour cells, Mean: 0.98%
[3]; DMSO
  % live tumour cells, Mean: 1.5%
[4]; 3 mg doses
  large increases in exposure after multiple doses: not observed
[4]; doses ≥6 mg
  exposure after multiple doses: large increases in exposure
[5]; 4 patients of Cohort 4, consecutive doses of 3 mg
  responses: No responses were observed
[5]; 9 subjects, maintenance dose of 10 mg (Cohorts 6 and 7)
  preliminary overall response rate: 88.9%
[5]; [7]
  MRD negativity: 75.0%
  overall response rate (partial response or better): 83.3%
  stringent complete response (sCR): 33.3%
  very good partial response (VGPR) or better: 58.3%
[5]; All Patients (N =19)
  Best response: Minimal response (MR): 0 (0) n (%)
  Best response: Not evaluable: 2 (10.5) n (%)
  Best response: Partial response (PR): 3 (15.8) n (%)
  Best response: Progressive disease (PD): 3 (15.8) n (%)
  Best response: Stringent complete response + complete response (sCR + CR): 4 (21.1) n (%)
  Best response: Very good partial response (VGPR): 3 (15.8) n (%)
  VGPR or better: 7 (36.8) n (%)
[5]; All Patients (N =19), Cohorts 1-7
  Overall response (PR or better): 10 (52.6) n (%)
[5]; Cohorts 8 and 9, starting dose 3 mg then maintenance dose ≥6 mg
  response compared with Cohorts 1 to 4 (maintenance dose ≤3 mg): improved response
[5]; [8]
  Best response: Minimal response (MR): 0 (0) n (%)
  Best response: Not evaluable: 1 (14.3) n (%)
  Best response: Partial response (PR): 0 (0) n (%)
  Best response: Progressive disease (PD): 2 (28.6) n (%)
  Best response: Stringent complete response + complete response (sCR + CR): 0 (0) n (%)
  Best response: Very good partial response (VGPR): 0 (0) n (%)
  VGPR or better: 0 (0) n (%)
[5]; Patients Treated with <6 mg (n = 7), Cohorts 1-7
  Overall response (PR or better): 0 (0) n (%)
[5]; [9]
  Best response: Minimal response (MR): 0 n (%)
  Best response: Not evaluable: 1 (11.1) n (%)
  Best response: Partial response (PR): 1 (11.1) n (%)
  Best response: Progressive disease (PD): 0 n (%)
  Best response: Stringent complete response + complete response (sCR + CR): 4 (44.4) n (%)
  Best response: Very good partial response (VGPR): 3 (33.3) n (%)
[5]; Patients Treated with up to 10 mg (n = 9), Cohorts 1-9
  Overall response (PR or better): 8 (88.9) n (%)
[5]; [10]
  Best response: Minimal response (MR): 0 (0) n (%)
  Best response: Not evaluable: 1 (8.3) n (%)
  Best response: Partial response (PR): 3 (25.0) n (%)
  Best response: Progressive disease (PD): 1 (8.3) n (%)
  Best response: Stringent complete response + complete response (sCR + CR): 4 (33.3) n (%)
  Best response: Very good partial response (VGPR): 3 (25.0) n (%)
  MRD negative: 9 (75.0) n (%)
  VGPR or better: 7 (58.3) n (%)
[5]; Patients Treated with ≥6 mg (n = 12), Cohorts 1-7
  Overall response (PR or better): 10 (83.3) n (%)
[5]; [11]
  Best response: Minimal response (MR): 0 (0) n (%)
  Best response: Not evaluable: 1 (14.3) n (%)
  Best response: Partial response (PR): 0 (0) n (%)
  Best response: Progressive disease (PD): 2 (28.6) n (%)
  Best response: Stringent complete response + complete response (sCR + CR): 0 (0) n (%)
  Best response: Very good partial response (VGPR): 0 (0) n (%)
[5]; Patients treated with up to 3 mg (n = 7), Cohorts 1-9
  Overall response (PR or better): 0 (0) n (%)
[5]; [12]
  Best response: Minimal response (MR): 0 (0) n (%)
  Best response: Not evaluable: 3 (21.4) n (%)
  Best response: Partial response (PR): 3 (21.4) n (%)
  Best response: Progressive disease (PD): 5 (35.7) n (%)
  Best response: Stringent complete response + complete response (sCR + CR): 1 (7.1) n (%)
  Best response: Very good partial response (VGPR): 1 (7.1) n (%)
[5]; Patients treated with up to 6 mg (n = 14), Cohorts 1-9
  Overall response (PR or better): 5 (35.7) n (%)
[5]; patients treated with up to 6 mg (Cohorts 5, 8, and 9)
  preliminary overall response rate: 35.7%
[5]; [13]
  median time to response: 4.2 weeks
  time to response, range: 4.0-13.1 weeks
[6]; 1 μM Dex co-treatment
  % live tumour cells, Mean: 5.8%
[6]; DMSO
  % live tumour cells, Mean: 3.71%
